This experiment has as its target T1, AR protein (Homo sapiens, UniProt P10275, T878A).
T1 construct: host or cells: LNCaP FGC
T1 sequence (P10275 1-920 T878A): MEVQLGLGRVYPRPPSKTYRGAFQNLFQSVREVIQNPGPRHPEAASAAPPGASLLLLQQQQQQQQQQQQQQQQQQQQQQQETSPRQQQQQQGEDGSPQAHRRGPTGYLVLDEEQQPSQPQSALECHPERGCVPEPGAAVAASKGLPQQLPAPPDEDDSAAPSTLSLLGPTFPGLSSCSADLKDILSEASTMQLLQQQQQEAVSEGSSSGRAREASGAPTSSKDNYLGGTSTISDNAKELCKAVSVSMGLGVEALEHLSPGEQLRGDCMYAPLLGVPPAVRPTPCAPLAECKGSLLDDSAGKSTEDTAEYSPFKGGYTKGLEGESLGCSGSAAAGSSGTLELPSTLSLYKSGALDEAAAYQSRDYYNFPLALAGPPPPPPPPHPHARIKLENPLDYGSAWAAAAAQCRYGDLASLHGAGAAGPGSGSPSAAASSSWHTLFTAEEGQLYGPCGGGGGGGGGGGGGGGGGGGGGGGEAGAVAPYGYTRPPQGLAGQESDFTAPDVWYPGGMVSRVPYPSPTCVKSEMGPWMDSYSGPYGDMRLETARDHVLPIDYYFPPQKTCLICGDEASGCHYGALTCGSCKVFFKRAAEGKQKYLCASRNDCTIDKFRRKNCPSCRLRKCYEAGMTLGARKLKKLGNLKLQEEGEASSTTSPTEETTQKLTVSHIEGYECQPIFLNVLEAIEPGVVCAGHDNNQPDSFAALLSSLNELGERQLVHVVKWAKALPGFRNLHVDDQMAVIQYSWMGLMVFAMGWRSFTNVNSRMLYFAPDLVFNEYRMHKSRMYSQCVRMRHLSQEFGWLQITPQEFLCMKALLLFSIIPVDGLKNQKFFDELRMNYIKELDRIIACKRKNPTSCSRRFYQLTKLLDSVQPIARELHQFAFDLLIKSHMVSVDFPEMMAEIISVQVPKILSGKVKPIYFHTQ
In words: AR protein degradation in LNCaP cells (Western blot). To be noted: 8 hours; for Degradation of AR protein in LNCaP cells, 10 nM (%) / percent AR protein degradation at a fixed concentration at 0.01 µM: 10 nM; for Degradation of AR protein in LNCaP cells, 100 nM (%) / percent AR protein degradation at a fixed concentration at 0.1 µM: 100 nM. It is filed as cell-based. The essentials:
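AR degradation rate derived from Western blot band densitometry, referenced to GAPDH, using total lysates of LNCaP cells treated 8 h with compound versus solvent control. Detection used infrared dual-color imaging after SDS-PAGE and PVDF transfer.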
(Immunoblotting shows a protein as a band on a membrane.)

SMILES strings stand for the structures.

On to `N#Cc1ccc(O[C@H]2CC[C@H](NC(=O)c3ccc(N4CCC(N5CC6(CCC7(CC6)COc6c7ccc7c6CN(C6CCC(=O)NC6=O)C7=O)C5)CC4)nn3)CC2)cc1Cl` (relative stereo) [A-P-1, N-((1r,4r)-4-(3-chloro-4-cyanophenoxy)cyclohexyl)-6-(4-(7'-(2,6-dioxopiperidin-3-yl)-6'-oxo-7',8'-dihydro-2'-H,6'-H-dihydro[azetidine-3,1'-cyclohexane-4',3"-furo[2,3-e]isoindol]-1-yl)piperidin-1-yl)pyridazine-3-carboxamide], for which the “Degradation of AR protein in LNCaP cells, 10 nM (%)” value (“Degradation … 10 nM (%)” for short) is listed as 66% and the “Degradation of AR protein in LNCaP cells, 100 nM (%)” value (“Degradation … 100 nM (%)” for short) is 48%.

Consider `COc1cc(O[C@H]2C(C)(C)[C@H](NC(=O)c3ccc(N4CCC(CN5CC6(CCC7(CC6)COc6c7ccc7c6CN(C6CCC(=O)NC6=O)C7=O)C5)CC4)cc3)C2(C)C)ccc1C#N` (relative stereo) [A-P-3], for which the “Degradation … 10 nM (%)” value amounted to 64% and the “Degradation … 100 nM (%)” value is reported as 65%.

`COc1cc(O[C@H]2C(C)(C)[C@H](NC(=O)c3ccc(N4CCC(C)(CN5CC6(CCC7(CC6)COc6c7ccc7c6CN(C6CCC(=O)NC6=O)C7=O)C5)CC4)cc3)C2(C)C)ccc1C#N` (relative stereo) [A-P-4]: the “Degradation … 10 nM (%)” value amounted to 74% and the “Degradation … 100 nM (%)” value was found to be 83%.

As to `COc1cc(O[C@H]2C(C)(C)[C@H](NC(=O)c3ccc(N4CCC(F)(CN5CC6(CCC7(CC6)COc6c7ccc7c6CN(C6CCC(=O)NC6=O)C7=O)C5)CC4)cc3)C2(C)C)ccc1C#N` (relative stereo) [A-P-5], the “Degradation … 10 nM (%)” value is 43% and the “Degradation … 100 nM (%)” value is on record as 62%.

For `N#Cc1ccc(O[C@H]2CC[C@H](NC(=O)c3ccc(N4CCC(N5CCC6(CC5)CCC5(CC6)COc6c5ccc5c6CN(C6CCC(=O)NC6=O)C5=O)CC4)nn3)CC2)cc1Cl` (relative stereo) [A-P-7, N-((1r,4r)-4-(3-chloro-4-cyanophenoxy)cyclohexy 1)-6-(4-(7-(2,6-dioxopiperidin-3-yl)-6-oxo-7,8-dihydro-2H,6H-dipyridyl[2,3-e]isoindole-3,1'-cyclohexane-4',4'"-piperidin]-1"-yl)pyridazine-3-carboxamide], the “Degradation … 10 nM (%)” value was 85% and the “Degradation … 100 nM (%)” value is reported as 75%.

As to `Cn1c(=O)n(C2CCC(=O)NC2=O)c2cc3c(cc21)C1(CCN(C2CC4(CCN(c5ccc(C(=O)N[C@H]6CC[C@H](Oc7ccc(C#N)c(Cl)c7)CC6)nn5)CC4)C2)CC1)CO3` (relative stereo) [A-P-12, N-((1r,4r)-4-(3-chloro-4-cyanophenoxy)cyclohexy 1)-6-(2-(3-(2,6-dioxopiperidin-3-yl)-1-methyl-2-oxo-2,3-dihydro-1H,6H-spiro[benzofuro[5,6-d]imidazole-7,4'-piperidin]-1'-yl)-7-azaspiro[3.5]nonan-7-yl)pyridazine-3-carboxamide], the “Degradation … 10 nM (%)” value turned out to be 56% and the “Degradation … 100 nM (%)” value worked out at 9%.

For the molecule `COc1cc(O[C@H]2C(C)(C)[C@H](NC(=O)c3ccc(N4CCC5(CC4)CC(N4CCC6(CC4)COc4cc7c(cc46)n(C)c(=O)n7C4CCC(=O)NC4=O)C5)nn3)C2(C)C)ccc1C#N` (relative stereo) [A-P-14, N-((1r,3r)-3-(4-cyano-3-methoxyphenoxy)-2,2,4,4-tetramethylcyclobutyl)-6-(2-(3-(2,6-dioxopiperidin-3-yl)-1-methyl-2-oxo-2,3-dihydro-1H,6H-spiro[benzofuro[5,6-d]imidazole-7,4'-piperidin]-1'-yl)-7-azaspiro[3.5]nonan-7-yl)pyridazine-3-carboxamide], the “Degradation … 10 nM (%)” value is listed as 36% and the “Degradation … 100 nM (%)” value is given as 32%.

As to `COc1cc(O[C@H]2C(C)(C)[C@H](NC(=O)c3ccc(N4CCC(C)(CN5CCC6(CC5)COc5cc7c(cc56)n(C)c(=O)n7C5CCC(=O)NC5=O)CC4)cc3)C2(C)C)ccc1C#N` (relative stereo) [A-P-16], the “Degradation … 10 nM (%)” value is 49% and the “Degradation … 100 nM (%)” value is listed as 29%.

Regarding `COc1cc(O[C@H]2CC[C@H](NC(=O)c3ccc(N4CCC(CN5CCC6(CC5)COc5cc7c(cc56)n(C)c(=O)n7C5CCC(=O)NC5=O)CC4)nn3)CC2)ccc1C#N` (relative stereo) [A-P-17], the “Degradation … 10 nM (%)” value came out at 1% and the “Degradation … 100 nM (%)” value is -18%.

In the case of `COc1cc(O[C@H]2C(C)(C)[C@H](NC(=O)c3ccc(N4CCC5(CC4)CC(N4CCC6(CC4)COc4cc7c(cc46)n(C)c(=O)n7C4CCC(=O)NC4=O)C5)cc3)C2(C)C)ccc1C#N` (relative stereo) [A-P-21], the “Degradation … 10 nM (%)” value came to 52% and the “Degradation … 100 nM (%)” value is 55%.

As for `COc1cc(O[C@H]2C(C)(C)[C@H](NC(=O)c3ccc(N4CCC(N5CC6(CCC7(CC6)COc6c7ccc7c6CN(C6CCC(=O)NC6=O)C7=O)C5)CC4)cc3)C2(C)C)ccc1C#N` (stereo partly shown) [A-P-2], the percent AR protein degradation at a fixed concentration at 0.01 µM was -42% and the percent AR protein degradation at a fixed concentration at 0.1 µM came to 43%.

`Cn1c(=O)n(C2CCC(=O)NC2=O)c2cc3c(cc21)C1(CCN(CC2CCN(c4ccc(C(=O)N[C@H]5CC[C@H](Oc6ccc(C#N)c(Cl)c6)CC5)nn4)CC2)CC1)CO3` (stereo partly shown) [A-P-10]: the percent AR protein degradation at a fixed concentration at 0.01 µM came out at 47% and the percent AR protein degradation at a fixed concentration at 0.1 µM came to 5%.

With `COc1cc(O[C@H]2C(C)(C)[C@H](NC(=O)c3ccc(N4CCC(F)(CN5CCC6(CC5)COc5cc7c(cc56)n(C)c(=O)n7C5CCC(=O)NC5=O)CC4)cc3)C2(C)C)ccc1C#N` (stereo partly shown) [A-P-13], the percent AR protein degradation at a fixed concentration at 0.01 µM was determined as 32% and the percent AR protein degradation at a fixed concentration at 0.1 µM worked out at 35%.

With `COc1cc(O[C@H]2CC[C@H](NC(=O)c3ccc(N4CCC(N5CCC6(CC5)COc5cc7c(cc56)n(C)c(=O)n7C5CCC(=O)NC5=O)CC4)nn3)CC2)ccc1C#N` (stereo partly shown) [A-P-18, N-((1r,4r)-4-(4-cyano-3-methoxyphenoxy)cyclohexyl)-6-(4-(3-(2,6-dioxopyridyl-3-yl)-1-methyl-2-oxo-2,3-dihydro-1H,6H-spiro[benzofuro[5,6-d]imidazole-7,4'-piperidin]-1'-yl)piperidin-1-yl)pyridazine-3-carboxamide], the percent AR protein degradation at a fixed concentration at 0.01 µM was found to be 43% and the percent AR protein degradation at a fixed concentration at 0.1 µM amounted to 11%.

Turning to `COc1cc(O[C@H]2CC[C@H](NC(=O)c3ccc(N4CCC(CN5CCC6(CC5)COc5c6ccc6c5n(C)c(=O)n6C5CCC(=O)NC5=O)CC4)nn3)CC2)ccc1C#N` (stereo partly shown) [A-P-22], the percent AR protein degradation at a fixed concentration at 0.01 µM came to 48% and the percent AR protein degradation at a fixed concentration at 0.1 µM was 25%.

In the case of `Cn1c(=O)n(C2CCC(=O)NC2=O)c2ccc3c(c21)OCC31CCN(C2CCN(c3ccc(C(=O)N[C@H]4CC[C@H](Oc5ccc(C#N)c(Cl)c5)CC4)nn3)CC2)CC1` (stereo partly shown) [A-P-23], the percent AR protein degradation at a fixed concentration at 0.01 µM amounted to 37% and the percent AR protein degradation at a fixed concentration at 0.1 µM was 14%.

On to `Cn1c(=O)n(C2CCC(=O)NC2=O)c2ccc3c(c21)OCC31CCN(CC2CCN(c3ccc(C(=O)N[C@H]4CC[C@H](Oc5ccc(C#N)c(Cl)c5)CC4)nn3)CC2)CC1` (stereo partly shown) [A-P-24], for which the percent AR protein degradation at a fixed concentration at 0.01 µM turned out to be 49% and the percent AR protein degradation at a fixed concentration at 0.1 µM was determined as 29%.

As to `Cn1c(=O)n(C2CCC(=O)NC2=O)c2ccc3c(c21)OCC31CCN(C2CC3(CCN(c4ccc(C(=O)N[C@H]5CC[C@H](Oc6ccc(C#N)c(Cl)c6)CC5)nn4)CC3)C2)CC1` (stereo partly shown) [A-P-25], the percent AR protein degradation at a fixed concentration at 0.01 µM was found to be 58% and the percent AR protein degradation at a fixed concentration at 0.1 µM came to 31%.

In the case of `C[C@H]1CC2(CCN(c3ccc(N4CCC(CN5CCC6(CC5)COc5ccc7c(c56)n(C)c(=O)n7C5CCC(=O)NC5=O)CC4)cc3)CC2)CN1c1ccc(C#N)c(Cl)c1` (stereo partly shown) [A-P-26, 2-chloro-4-((3 S)-8-(4-(4-((3-((2,6-dioxopiperidin-3-yl))-1-methyl-2-oxo-2,3-dihydro-1H,7H-spiro[benzofuro[4,5-d]imidazole-8,4'-piperidin]-1'-yl)methyl)piperidin-1-yl)phenyl)-3-methyl-2,8-diazaspiro[4.5]decan-2-yl)benzonitrile], the percent AR protein degradation at a fixed concentration at 0.01 µM came out at 48% and the percent AR protein degradation at a fixed concentration at 0.1 µM was 65%.

As to `COc1cc(O[C@H]2C(C)(C)[C@H](NC(=O)c3ccc(N4CCC(N5CCC6(CC5)COc5c6ccc6c5n(C)c(=O)n6C5CCC(=O)NC5=O)CC4)cc3)C2(C)C)ccc1C#N` (stereo partly shown) [A-P-29], the percent AR protein degradation at a fixed concentration at 0.01 µM worked out at 6% and the percent AR protein degradation at a fixed concentration at 0.1 µM is -27%.

The values are drawn from patent EP4722219A1 (Gan & Lee Pharmaceuticals Co., Ltd., priority 2023, dated 2024).
